Columns and labels:
MDA-MB-231 cells = experiment: Cell spreading and F-actin visualization on fibronectin (phalloidin); assay type: cell-based, human; conditions: 5 μM, two hours
From the text: FIGS. 1A to 1E show a schematics of an exemplary drug screen for antivascular agent described herein, e.g., dehydro-alpha-lapachone (DAL) and effects of DAL on cell adhesion properties. […] Of the 50,000 compounds screened, 86 compounds were selected to test in the secondary assays. Only compounds that made MDA-MB-231 cells more rounded, with less spreading than control cells, and interfered with actin regulation were selected for further study. All these selected small molecules were further passed through a number of filtering toxicity assays to eliminate toxic compounds. […] The non-toxic compounds were then analyzed in a zebrafish model. […]
A cell-based readout system was used for compound selection. […] As a further test of toxicity, DAL was injected intraperitoneally at 100 mg/kg in SCID mice and signs of toxicity including cachexia, ruffled fur, diarrhea, anorexia, skin ulceration, and toxic death were monitored.
A screening strategy was developed to identify potential agents that target adhesion of endothelial cells or cancer cells to their substrate. […] The initial screening step quantified the number of cells remaining attached to their wells following incubation with each compound and subsequent washing steps. […] The agents that affect cell adhesion can be monitored through remodeling of actin filaments. […] Changes in actin assembly and cell shape after treatment with 12 compounds were determined. […]

[1] = test system: orthotopic 4T1 mammary tumors; experiment: Tumor growth delay study, 4T1; assay type: in vivo, female SCID mice; conditions: 4T1 tumors, start ~200 mm^3, 37.5 mg/kg daily i.p.
Procedure: To assess the anti-tumor effects of DAL, female SCID mice bearing orthotopic 4T1 or E0771 mammary tumors were treated with daily i.p. injections of 37.5 mg/kg DAL or saline. In order to calculate tumor volumes, the major and minor axis diameters were measured with calipers and the tumor volume was calculated by assuming a spherical shape based on the average of these two dimensions. The tumors were implanted in the mammary fat pad and allowed to grow to a starting size (small ˜100 mm^3 tumors for E0771, large ˜200 mm^3 tumors for 4T1) over ˜2 weeks. To ensure that tumors in the two groups were of similar growth rates, the treatment with saline or DAL was begun in pairs of tumors with similar sizes and growth times. Tumor volumes were measured every other day until the tumors reached an average of ˜10 mm in diameter. Tumor growth was quantified with the doubling rate, and calculated by fitting an exponential growth curve to the data for tumor size versus time.
As shown in Example 3, DAL has an antivascular effect in orthotopic mammary tumors in mice. Thus, the antitumor effect of DAL was next assessed. […] The effect of DAL on the growth of orthotopic 4T1 and E0771 mammary tumors with daily treatment of DAL or saline was evaluated (FIG. 4A). 37.5 mg/kg of DAL was used for these experiments based on the pharmacokinetics results as well as in vitro and in vivo data. […]

Rac1 mRNA = Rac1 mRNA expression by quantitative PCR; assay type: cell-based

CC1(C)C=CC2=C(O1)C(=O)c1ccccc1C2=O [DAL, dehydro-alpha-lapachone]
cell spreading, size and shape on fibronectin-coated plates (MDA-MB-231 cells): significantly smaller than control cells and had a rounded shape | F-actin distribution (MDA-MB-231 cells; phalloidin): actin was accumulated close to the membrane | tumor volume doubling time [1]: 11.21 ± 3.53 days | expression levels of Rac1 mRNA (Rac1 mRNA): did not change

Reference: patent US20140161720A1, “TREATMENT OF ANGIOGENIC- OR VASCULAR-ASSOCIATED DISEASES” (THE GENERAL HOSPITAL CORPORATION, priority 2011, published 2014)
